Reference: ChEMBL document CHEMBL1201862, “PubChem BioAssay data set” (2004)
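Growth conditions: 96-well plates. Treatment: test compound, 48 hours, 5 concentrations. Analysis: linear interpolation between bracketing concentrations; unreached endpoints set to highest concentration. GI50 = concentration required for 50% inhibition of growth.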 Calls of active or inactive are those of the source. Rule as the data show it: active = GI50 up to about 1.1 µM and inactive = higher.

Key:
Assay in all cases: NCI anticancer screen, dose series, 48 h
SN12C = system: SN12C
UACC-257 = system: UACC-257
A498 = system: A498
UO-31 = system: UO-31
NCI/ADR-RES = system: NCI/ADR-RES
A549 = system: A549
OVCAR-3 = system: OVCAR-3
OVCAR-5 = system: OVCAR-5
Hs-578T = system: Hs-578T
HT-29 = system: HT-29
K562 = system: K562
NCI-H522 = system: NCI-H522
PC-3 = system: PC-3
Malme-3M = system: Malme-3M
MCF7 = system: MCF7
UACC-62 = system: UACC-62
OVCAR-4 = system: OVCAR-4
MOLT-4 = system: MOLT-4
COLO 205 = system: COLO 205
HOP-92 = system: HOP-92

Measured: GI50

Cc1ccc(C)n1-n1c(-c2ccccc2)n[nH]c1=O
inactive: SN12C > 100 µM | UACC-257 > 100 µM | A498 > 100 µM | UO-31 > 100 µM | NCI/ADR-RES > 100 µM | A549 > 100 µM | OVCAR-3 > 100 µM | OVCAR-5 > 100 µM | Hs-578T > 100 µM | HT-29 > 100 µM | K562 53.7 µM | NCI-H522 > 100 µM | PC-3 > 100 µM | Malme-3M > 100 µM | MCF7 > 100 µM | UACC-62 > 100 µM | OVCAR-4 > 100 µM | MOLT-4 > 100 µM | COLO 205 > 100 µM

C/C(=N\Nc1ccc([N+](=O)[O-])cc1[N+](=O)[O-])c1ccc2ccccc2n1
inactive: SN12C > 100 µM | UACC-257 > 100 µM | UO-31 51.4 µM | NCI/ADR-RES 46 µM | A549 57.5 µM | HOP-92 > 100 µM | OVCAR-5 > 100 µM | Hs-578T 25.3 µM | HT-29 74.6 µM | K562 > 100 µM | NCI-H522 13.7 µM | PC-3 > 100 µM | Malme-3M > 100 µM | MCF7 89.9 µM | UACC-62 66.2 µM | MOLT-4 > 100 µM | COLO 205 > 100 µM

CC(=O)NCC1OC2COC(c3ccccc3)OC2C2N=C(c3ccccc3)OC12 (centres undefined)
inactive: SN12C > 100 µM | UACC-257 57.5 µM | A498 37.4 µM | UO-31 39.9 µM | NCI/ADR-RES 42.5 µM | A549 37.8 µM | HOP-92 61.1 µM | OVCAR-3 76 µM | OVCAR-5 > 100 µM | Hs-578T 51.5 µM | HT-29 34.8 µM | K562 32.6 µM | PC-3 24.9 µM | Malme-3M 58.7 µM | MCF7 41.9 µM | UACC-62 45.7 µM | OVCAR-4 85.9 µM | MOLT-4 43.2 µM | COLO 205 30.7 µM

Nc1nc(Cl)cc(NCC2(CO)CCC2)n1
inactive: SN12C > 100 µM | UACC-257 > 10 µM | UO-31 > 100 µM | NCI/ADR-RES > 100 µM | A549 > 100 µM | HOP-92 > 100 µM | OVCAR-3 > 100 µM | OVCAR-5 > 100 µM | Hs-578T > 100 µM | HT-29 > 100 µM | K562 > 100 µM | NCI-H522 > 100 µM | PC-3 > 100 µM | Malme-3M > 100 µM | MCF7 > 100 µM | UACC-62 99.3 µM | OVCAR-4 > 100 µM | MOLT-4 > 100 µM | COLO 205 > 100 µM

CC(=O)CC1CCC(=O)CCC(=O)OC(CC(C)=O)CCC(=O)CCC(=O)O1 (centres undefined)
inactive: SN12C > 100 µM | UACC-257 > 100 µM | NCI/ADR-RES > 100 µM | A549 > 100 µM | HOP-92 > 100 µM | OVCAR-3 > 100 µM | OVCAR-5 > 100 µM | Hs-578T > 100 µM | HT-29 > 100 µM | K562 > 100 µM | NCI-H522 > 100 µM | PC-3 > 100 µM | Malme-3M > 100 µM | MCF7 > 100 µM | UACC-62 > 100 µM | OVCAR-4 > 100 µM | MOLT-4 > 100 µM | COLO 205 > 100 µM

Cc1cc(C)nc(NS(=O)(=O)c2ccc(NNc3c4ccccc4nc4c(C(=O)Nc5ccc(S(=O)(=O)Nc6cc(C)on6)cc5)cccc34)cc2)n1
inactive: SN12C 37 µM | UACC-257 73.6 µM | UO-31 34.7 µM | NCI/ADR-RES > 100 µM | A549 > 100 µM | HOP-92 23.7 µM | OVCAR-3 20.4 µM | OVCAR-5 23.9 µM | Hs-578T 51.4 µM | HT-29 23.2 µM | K562 34.5 µM | NCI-H522 28.2 µM | PC-3 34.8 µM | Malme-3M 53.7 µM | MCF7 50.8 µM | UACC-62 46.3 µM | OVCAR-4 46.3 µM | MOLT-4 32.5 µM | COLO 205 36.4 µM

CC(C)(C)C1CCC2c3c([nH]c4ccccc34)C3C(=O)N(c4cc(Cl)ccc4Cl)C(=O)C3C2C1 (centres undefined)
inactive: SN12C > 100 µM | UACC-257 > 100 µM | A498 > 100 µM | UO-31 > 100 µM | NCI/ADR-RES > 100 µM | A549 > 100 µM | HOP-92 65.8 µM | OVCAR-3 > 100 µM | OVCAR-5 > 100 µM | Hs-578T 45.5 µM | HT-29 > 100 µM | K562 > 100 µM | PC-3 > 100 µM | Malme-3M > 100 µM | MCF7 > 100 µM | UACC-62 > 100 µM | MOLT-4 > 100 µM | COLO 205 > 100 µM
